{
  "source": "patent US20230280333A1",
  "about": "“FOREIGN SUBSTANCE INTRODUCTION CONSTRUCT AND USE THEREOF” (TOAGOSEI CO., LTD., priority 2022, published 2023)",
  "key": {"HeLa cells": {"system": "HeLa cells", "experiment": "Evaluation of the cell membrane permeability by flow cytometry", "format": "cell-based, human", "settings": "for MFI: mean fluorescent intensity of HeLa cells, 10 μM in culture medium, 0.5% DMSO, 20 hours at 37° C., FL2 detector; for cell membrane permeability, conclusion in words / MFI compared between examples, in words: HeLa cells, 10 μM, 20 hours; for cell membrane permeability, conclusion in words: FAM-labelled constructs", "experimental": "The cell membrane permeability of peptides 1 to 4 was analyzed using HeLa cells (an established cell line derived from human cervical cancer cells) as the eukaryotic cells.\nHeLa cells were cultured on DMEM (Dulbecco's modified Eagle's medium (Cat. No. 043-30085, from FUJIFILM Wako Pure Chemical Corporation)) containing 10% FBS (fetal bovine serum), which is a general culture medium.\nThe HeLa cells attached to the culture plate were washed with PBS, a 0.25% trypsin/EDTA solution was then added, and incubation was carried out for 3 minutes at 37° C. After this incubation, the aforementioned DMEM containing 10% FBS was added and the trypsin was inactivated, and the cells were then sedimented by carrying out centrifugal separation for 5 minutes at 150×g. The supernatant produced by the centrifugal separation was removed, and the aforementioned DMEM containing 10% FBS was added to the sediment (cell pellet) to prepare a cell suspension containing approximately 2×10^5 cells/mL. The cells were seeded (approximately 2×10^5 cells/well) by the addition of 1 mL of this cell suspension to the wells of a commercial 6-well plate (Iwaki). In addition, the 2 mM sample solution 1 was diluted with the aforementioned DMEM containing 10% FBS to prepare a sample solution 1 in which the sample 1 concentration was 20 μM. 1 mL of this 20 sample solution 1 was added to a well (i.e., the concentration of sample 1 in the culture medium in the wells was brought to 10 μM and the DMSO concentration was brought to 0.5%). The cells were subsequently incubated for 20 hours at 37° C. under the condition of 5% CO2.\nAfter this 20-hour incubation, the culture supernatant was removed from a well and the cells in the well were washed twice with 1 mL PBS. 200 μL of a 0.25% trypsin/EDTA solution was then added to the well and incubation was carried out for 3 minutes at 37° C. After this incubation, the trypsin was inactivated by the addition of 400 μL of the aforementioned DMEM containing 10% FBS to the well, and the cells were subsequently recovered by transferring the cell suspension in a well to a tube. The well was then washed by the further addition of 600 μL PBS to the well. The cells that had remained in the well were recovered to the tube by transferring the PBS in the well to the tube. Centrifugal separation was run on this tube for 5 minutes using conditions of 4° C. and 210×g. After the centrifugal separation, the supernatant was removed, the sediment (cell pellet) was suspended (washed) with 1 mL of PBS, and centrifugal separation was carried out using the same conditions as before. After this procedure had been performed twice, the supernatant was removed to obtain cells (cell pellet) that had been cultured on a sample 1-containing culture medium.\nThe cell permeability of sample 1 was analyzed using the resulting cells (cell pellet) and a flow cytometer. An On-Chip Flow Cytometer (On-chip Biotechnologies Co., Ltd.) was used for the flow cytometer.\nFor this analysis, the cell pellet obtained as described above was suspended in 50 μL PBS. To this suspension was added 50 μL of Sample Buffer 2× for use with the indicated flow cytometer to prepare a cell suspension for submission to analysis.\nGating was performed using this flow cytometer based on forward scatter (FSC) and side scatter (SSC); the gating was set for the cell population that was the target of the analysis; and the fluorescent intensity was measured for the cell population within this gating. The analysis was performed so the cell count for this cell population reached at least 10,000 or more. The FL2 fluorescence detector (optimal detection wavelength around 543 nm) on the indicated flow cytometer, which could detect the fluorescence wavelength of FAM, was used to measure the fluorescent intensity. […]"}, "[1]": {"system": "cell membrane of eukaryotic cells", "experiment": "Cell membrane permeability stated by the inventors, no data or method shown", "format": "cell-based", "settings": "detailed data not provided"}, "nucleolus": {"system": "nucleolus", "experiment": "Nucleolar transferability stated in the description, no method shown", "format": "cell-based"}},
  "note": "Where no end group is shown, it is not given here.",
  "data": [
    {"substance": "5(6)-carboxyfluorescein [Example 5, reference compound]", "values": [
      {"measurement": "MFI", "setting": "HeLa cells", "value": 10.3}
    ]},
    {"substance": "KKRTLRKSNRKKRWPC (Ac-KKRTLRKSNRKKRWPC) [Peptide 1, carrier peptide fragment; synthesized with N-terminal α-amino group acetylated]", "values": [
      {"measurement": "cell membrane permeability, conclusion in words", "setting": "HeLa cells; listed as SEQ ID NO: 1", "value": "better cell membrane permeability than peptide composed of the amino acid sequence given by SEQ ID NO: 4"}
    ]},
    {"substance": "Ac-KKRTLRKKKRKKR-FAM [Example 4]", "values": [
      {"measurement": "MFI", "setting": "HeLa cells", "value": 24.3}
    ]},
    {"substance": "Ac-KKRTLRKSNRKKRWPC-FAM (Ac-KKRTLRKSNRKKRWPC-{FAM}) [Example 1, foreign substance introduction construct provided with peptide 1, FAM bonded to the C-terminal side]", "values": [
      {"measurement": "MFI compared between examples, in words", "setting": "HeLa cells", "value": "highest among Example 1, Example 3, and Example 3′"},
      {"measurement": "MFI", "setting": "HeLa cells", "value": 87.5}
    ]},
    {"substance": "KKRTLRKKKRKKRWPC (Ac-KKRTLRKKKRKKRWPC) [Peptide 2, carrier peptide fragment; synthesized with N-terminal α-amino group acetylated]", "values": [
      {"measurement": "cell membrane permeability, conclusion in words", "setting": "HeLa cells; listed as SEQ ID NO: 2", "value": "better cell membrane permeability than peptide composed of the amino acid sequence given by SEQ ID NO: 5"}
    ]},
    {"substance": "Ac-KKRTLRKKKRKKRWPC-FAM (Ac-KKRTLRKKKRKKRWPC-{FAM}) [Example 2, foreign substance introduction construct provided with peptide 2, FAM bonded to the C-terminal side]", "values": [
      {"measurement": "MFI compared between examples, in words", "setting": "HeLa cells", "value": "significantly higher MFI than Example 4"},
      {"measurement": "MFI", "setting": "HeLa cells", "value": 121}
    ]},
    {"substance": "KKRTLRKSNRKKR (Ac-KKRTLRKSNRKKR) [Peptide 3, variant of LIM kinase 2 NoLS; synthesized with N-terminal acetylation]", "values": [
      {"measurement": "cell membrane permeability, statement in words", "setting": "[1]", "value": "higher cell membrane permeability than peptide comprising the amino acid sequence given by SEQ ID NO: 3"}
    ]},
    {"substance": "FAM-KKRTLRKSNRKKR-CONH2 [Example 3′]", "values": [
      {"measurement": "MFI", "setting": "HeLa cells", "value": 62}
    ]},
    {"substance": "KKRTLRKKKRKKR (Ac-KKRTLRKKKRKKR) [Peptide 4, variant of LIM kinase 2 NoLS; synthesized with N-terminal acetylation]", "values": [
      {"measurement": "cell membrane permeability, statement in words", "setting": "[1]", "value": "higher cell membrane permeability than peptide comprising the amino acid sequence given by SEQ ID NO: 3"},
      {"measurement": "nucleolar transferability, in words", "setting": "nucleolus", "value": "excellent nucleolar transferability"}
    ]},
    {"substance": "Ac-KKRTLRKSNRKKR-FAM [Example 3]", "values": [
      {"measurement": "MFI", "setting": "HeLa cells", "value": 12.4}
    ]}
  ]
}
